Laboratory results from ChEMBL document CHEMBL1629655, “Affinity of Tomopenem (CS-023) for penicillin-binding proteins in Staphylococcus aureus, Escherichia coli, and Pseudomonas aeruginosa” (Antimicrob Agents Chemother, 2009).
≈ marks a conversion by molar mass, not a printed value.

What was measured:
[1] = tested on: Staphylococcus aureus; experiment: Ratio of MIC for Staphylococcus aureus SIR2a selected at 2 times MIC of imipenem to MIC for Staphylococcus aureus ATCC 6538P; type: functional
[2] = tested on: Escherichia coli; experiment: Ratio of MIC for Escherichia coli ERR2b to MIC for Escherichia coli NIHJ; type: functional
[3] = tested on: Staphylococcus aureus; experiment: Ratio of MIC for Staphylococcus aureus SMR2a to MIC for Staphylococcus aureus ATCC 6538P; type: functional
[4] = tested on: Staphylococcus aureus; experiment: Antibacterial activity against Staphylococcus aureus SIR2a selected at 2 times MIC of imipenem by microdilution method; type: functional
[5] = tested on: Staphylococcus aureus; experiment: Antibacterial activity against Staphylococcus aureus SRR2a selected at 2 times MIC of tomopenem by microdilution method; type: functional
[6] = tested on: Staphylococcus aureus; experiment: Antibacterial activity against Staphylococcus aureus SMR4a […] MIC of meropenem by microdilution method; type: functional
[7] = tested on: Staphylococcus aureus; experiment: Ratio of MIC for Staphylococcus aureus SMR4a to MIC for Staphylococcus aureus ATCC 6538P; type: functional
[8] = tested on: Staphylococcus aureus; experiment: Ratio of MIC for Staphylococcus aureus SRR2a to MIC for Staphylococcus aureus ATCC 6538P; type: functional
[9] = tested on: Staphylococcus aureus; experiment: Antibacterial activity against Staphylococcus aureus SMR2a selected at 2 times MIC of meropenem by microdilution method; type: functional
[10] = tested on: Pseudomonas aeruginosa; experiment: Antibacterial activity against Pseudomonas aeruginosa PIR2a selected at 2 times MIC of imipenem by microdilution method; type: functional
[11] = Displacement of [14C]benzylpenicillin from PBP4 in Escherichia coli NIHJ
[12] = tested on: Escherichia coli; experiment: Antibacterial activity against Escherichia coli EMR2a selected at 2 times MIC of meropenem by microdilution method; type: functional
[13] = tested on: Escherichia coli; experiment: Antibacterial activity against Escherichia coli EIR2b selected at 2 times MIC of imipenem by microdilution method; type: functional
[14] = tested on: Pseudomonas aeruginosa; experiment: Antibacterial activity against Pseudomonas aeruginosa PRR4a selected at 4 times MIC of tomopenem by microdilution method; type: functional
[15] = Displacement of [14C]benzylpenicillin from PBP4 in Staphylococcus aureus ATCC 6538P
[16] = Displacement of [14C]benzylpenicillin from PBP1A in Pseudomonas aeruginosa ATCC 15692
[17] = Displacement of [14C]benzylpenicillin from PBP3 in Staphylococcus aureus ATCC 6538P
[18] = Displacement of [14C]benzylpenicillin from PBP2 in Escherichia coli NIHJ
[19] = Displacement of [14C]benzylpenicillin from PBP5 in Escherichia coli NIHJ
[20] = Displacement of [14C]benzylpenicillin from PBP3 in Escherichia coli NIHJ
[21] = tested on: Escherichia coli; experiment: Ratio of MIC for Escherichia coli ERR8a to MIC for Escherichia coli NIHJ; type: functional
[22] = tested on: Escherichia coli; experiment: Antibacterial activity against Escherichia coli NIHJ by microdilution method; type: functional, organism-based
[23] = Displacement of [14C]benzylpenicillin from PBP3 in Pseudomonas aeruginosa ATCC 15692
[24] = Displacement of [14C]benzylpenicillin from PBP1 in Staphylococcus aureus ATCC 6538P
[25] = Displacement of [14C]benzylpenicillin from PBP1B in Escherichia coli NIHJ
[26] = tested on: Escherichia coli; experiment: Antibacterial activity against Escherichia coli ERR2a selected at 2 times MIC of tomopenem by microdilution method; type: functional
[27] = Displacement of [14C]benzylpenicillin from PBP1B in Pseudomonas aeruginosa ATCC 15692
[28] = tested on: Escherichia coli; experiment: Ratio of MIC for Escherichia coli EIR8a to MIC for Escherichia coli NIHJ; type: functional
[29] = tested on: Pseudomonas aeruginosa; experiment: Ratio of MIC for Pseudomonas aeruginosa PMR2a to MIC for Pseudomonas aeruginosa ATCC 15692; type: functional
[30] = tested on: Pseudomonas aeruginosa; experiment: Antibacterial activity against Pseudomonas aeruginosa PMR2a selected at 2 times MIC of meropenem by microdilution method; type: functional
[31] = tested on: Pseudomonas aeruginosa; experiment: Ratio of MIC for Pseudomonas aeruginosa PIR2a to MIC for Pseudomonas aeruginosa ATCC 15692; type: functional
[32] = tested on: Pseudomonas aeruginosa; experiment: Antibacterial activity against Pseudomonas aeruginosa ATCC 15692 by microdilution method; type: functional, organism-based
[33] = tested on: Escherichia coli; experiment: Ratio of MIC for Escherichia coli ERR2a selected to MIC for Escherichia coli NIHJ; type: functional
[34] = tested on: Escherichia coli; experiment: Antibacterial activity against Escherichia coli EIR4b selected at 4 times MIC of imipenem by microdilution method; type: functional
[35] = Displacement of [14C]benzylpenicillin from PBP 6 in Pseudomonas aeruginosa ATCC 15692
[36] = tested on: Escherichia coli; experiment: Antibacterial activity against Escherichia coli EIR2a selected at 2 times MIC of imipenem by microdilution method; type: functional
[37] = tested on: Escherichia coli; experiment: Ratio of MIC for Escherichia coli EIR4a to MIC for Escherichia coli NIHJ; type: functional
[38] = tested on: Escherichia coli; experiment: Antibacterial activity against Escherichia coli EIR4a selected at 4 times MIC of imipenem by microdilution method; type: functional
[39] = tested on: Escherichia coli; experiment: Ratio of MIC for Escherichia coli EIR4b to MIC for Escherichia coli NIHJ; type: functional
[40] = Displacement of [14C]benzylpenicillin from PBP 5 in Pseudomonas aeruginosa ATCC 15692
[41] = tested on: Escherichia coli; experiment: Antibacterial activity against Escherichia coli EIR8a selected at 8 times MIC of imipenem by microdilution method; type: functional
[42] = tested on: Escherichia coli; experiment: Antibacterial activity against Escherichia coli ERR4a selected at 4 times MIC of tomopenem by microdilution method; type: functional
[43] = tested on: Escherichia coli; experiment: Ratio of MIC for Escherichia coli EIR2a to MIC for Escherichia coli NIHJ; type: functional
[44] = tested on: Pseudomonas aeruginosa; experiment: Ratio of MIC for Pseudomonas aeruginosa PRR4a to MIC for Pseudomonas aeruginosa ATCC 15692; type: functional
[45] = Displacement of [14C]benzylpenicillin from PBP2 Staphylococcus aureus ATCC 6538P
[46] = Displacement of [14C]benzylpenicillin from PBP2 in Pseudomonas aeruginosa ATCC 15692
[47] = Displacement of [14C]benzylpenicillin from PBP6 Escherichia coli NIHJ
[48] = tested on: Escherichia coli; experiment: Antibacterial activity against Escherichia coli ERR2b selected at 2 times MIC of tomopenem by microdilution method; type: functional
[49] = Displacement of [14C]benzylpenicillin from PBP1A in Escherichia coli NIHJ
[50] = tested on: Escherichia coli; experiment: Ratio of MIC for Escherichia coli ERR4a to MIC for Escherichia coli NIHJ; type: functional
[51] = tested on: Staphylococcus aureus; experiment: Antibacterial activity against Staphylococcus aureus ATCC 6538P by microdilution method; type: functional, organism-based
[52] = tested on: Escherichia coli; experiment: Antibacterial activity against Escherichia coli ERR8a selected at 8 times MIC of tomopenem by microdilution method; type: functional
[53] = tested on: Escherichia coli; experiment: Ratio of MIC for Escherichia coli EMR2a to MIC for Escherichia coli NIHJ; type: functional
[54] = Displacement of [14C]benzylpenicillin from PBP4 in Pseudomonas aeruginosa ATCC 15692
[55] = tested on: Escherichia coli; experiment: Ratio of MIC for Escherichia coli EIR2b to MIC for Escherichia coli NIHJ; type: functional

**Q.** For `C[C@H]1COc2c(N3CCN(C)CC3)c(F)cc3c(=O)c(C(=O)O)cn1c23.C[C@H]1COc2c(N3CCN(C)CC3)c(F)cc3c(=O)c(C(=O)O)cn1c23.O` [LEVOFLOXACIN], which Ratio MIC [1] is on record?
**A.** 1

**Q.** And the Ratio MIC [2]?
**A.** 2

**Q.** And the Ratio MIC [3]?
**A.** 2

**Q.** And the MIC [4]?
**A.** 0.06 µg/mL

**Q.** And the MIC [5]?
**A.** 0.12 µg/mL

**Q.** What about the MIC [6] of the same molecule?
**A.** 0.06 µg/mL

**Q.** What about the ratio [7] of the same molecule?
**A.** 1

**Q.** And the Ratio MIC [8]?
**A.** 2

**Q.** And the MIC [9]?
**A.** 0.12 µg/mL

**Q.** What about the MIC [10] of the same molecule?
**A.** 0.5 µg/mL

**Q.** For `C[C@@H](O)[C@H]1C(=O)N2C(C(=O)O)=C(SCCNC=N)C[C@H]12` [IMIPENEM ANHYDROUS], which Ratio MIC [1] is on record?
**A.** 4

**Q.** What about the IC50 [11] of the same molecule?
**A.** 0.44 µg/mL (≈ 1.47 µM)

**Q.** What about the MIC [12] of the same molecule?
**A.** 1 µg/mL

**Q.** And the MIC [13]?
**A.** 0.5 µg/mL

**Q.** What about the MIC [14] of the same molecule?
**A.** 8 µg/mL

**Q.** What about the IC50 [15] of the same molecule?
**A.** 0.0078 µg/mL (≈ 0.0261 µM)

**Q.** What about the IC50 [16] of the same molecule?
**A.** 0.057 µg/mL (≈ 0.19 µM)

**Q.** What about the Ratio MIC [2] of the same molecule?
**A.** 4

**Q.** What about the IC50 [17] of the same molecule?
**A.** 0.049 µg/mL (≈ 0.164 µM)

**Q.** What about the IC50 [18] of the same molecule?
**A.** 0.045 µg/mL (≈ 0.15 µM)

**Q.** And the IC50 [19]?
**A.** 0.34 µg/mL (≈ 1.14 µM)

**Q.** And the Ratio MIC [3]?
**A.** 4

**Q.** And the MIC [4]?
**A.** 0.03 µg/mL

**Q.** What about the IC50 [20] of the same molecule?
**A.** 19 µg/mL (≈ 63.5 µM)

**Q.** And the Ratio MIC [21]?
**A.** 2

**Q.** And the MBC [22]?
**A.** 0.25 µg/mL (≈ 0.835 µM)

**Q.** What about the MIC [22] of the same molecule?
**A.** 0.25 µg/mL (≈ 0.835 µM)

**Q.** And the IC50 [23]?
**A.** 0.089 µg/mL (≈ 0.297 µM)

**Q.** What about the IC50 [24] of the same molecule?
**A.** 0.024 µg/mL (≈ 0.0802 µM)

**Q.** And the IC50 [25]?
**A.** 1.1 µg/mL (≈ 3.67 µM)

**Q.** And the MIC [26]?
**A.** 1 µg/mL

**Q.** What about the MIC [5] of the same molecule?
**A.** 0.03 µg/mL

**Q.** What about the MIC [6] of the same molecule?
**A.** 0.03 µg/mL

**Q.** What about the IC50 [27] of the same molecule?
**A.** 0.078 µg/mL (≈ 0.261 µM)

**Q.** What about the Ratio MIC [28] of the same molecule?
**A.** 2

**Q.** What about the ratio [7] of the same molecule?
**A.** 4

**Q.** What about the Ratio MIC [29] of the same molecule?
**A.** 16

**Q.** What about the MIC [30] of the same molecule?
**A.** 16 µg/mL

**Q.** What about the Ratio MIC [31] of the same molecule?
**A.** 16

**Q.** What about the MBC [32] of the same molecule?
**A.** 2 µg/mL (≈ 6.68 µM)

**Q.** And the MIC [32]?
**A.** 1 µg/mL (≈ 3.34 µM)

**Q.** And the Ratio MIC [33]?
**A.** 4

**Q.** What about the MIC [34] of the same molecule?
**A.** 1 µg/mL

**Q.** What about the IC50 [35] of the same molecule?
**A.** 0.19 µg/mL (≈ 0.635 µM)

**Q.** What about the MIC [36] of the same molecule?
**A.** 1 µg/mL

**Q.** And the Ratio MIC [37]?
**A.** 4

**Q.** And the Ratio MIC [8]?
**A.** 4

**Q.** What about the MIC [38] of the same molecule?
**A.** 1 µg/mL

**Q.** What about the Ratio MIC [39] of the same molecule?
**A.** 4

**Q.** What about the IC50 [40] of the same molecule?
**A.** 0.19 µg/mL (≈ 0.635 µM)

**Q.** And the MIC [41]?
**A.** 0.5 µg/mL

**Q.** And the MIC [42]?
**A.** 1 µg/mL

**Q.** And the Ratio MIC [43]?
**A.** 4

**Q.** What about the Ratio MIC [44] of the same molecule?
**A.** 8

**Q.** What about the IC50 [45] of the same molecule?
**A.** 0.047 µg/mL (≈ 0.157 µM)

**Q.** What about the IC50 [46] of the same molecule?
**A.** 0.066 µg/mL (≈ 0.22 µM)

**Q.** And the IC50 [47]?
**A.** 1 µg/mL (≈ 3.34 µM)

**Q.** What about the MIC [48] of the same molecule?
**A.** 1 µg/mL

**Q.** And the MIC [9]?
**A.** 0.03 µg/mL

**Q.** And the IC50 [49]?
**A.** 0.22 µg/mL (≈ 0.735 µM)

**Q.** And the MIC [10]?
**A.** 16 µg/mL

**Q.** What about the Ratio MIC [50] of the same molecule?
**A.** 4

**Q.** And the IC50 [51]?
**A.** 0.008 µg/mL (≈ 0.0267 µM)

**Q.** And the MBC [51]?
**A.** 0.008 µg/mL (≈ 0.0267 µM)

**Q.** And the MIC [51]?
**A.** 0.008 µg/mL (≈ 0.0267 µM)

**Q.** And the MIC [52]?
**A.** 0.5 µg/mL

**Q.** What about the Ratio MIC [53] of the same molecule?
**A.** 4

**Q.** What about the IC50 [54] of the same molecule?
**A.** 0.0032 µg/mL (≈ 0.0107 µM)

**Q.** And the Ratio MIC [55]?
**A.** 2
